According to patent US9708397B2, “Treatment of vasculoproliferative conditions with Lrg1 antagonists” (UCL Business PLC, priority 2010, dated 2017):

System: Lrg1/TGFβ1 induced Smad5 phosphorylation
Assay: TGFβ-induced Smad5 phosphorylation in Lrg1 over-expressing GPNT endothelial cells
Type: cell-based, rat
Settings: 5 ng/ml TGFβ, co-treatment
Text: We next established whether we could block endothelial Smad5 phosphorylation induced by TGFβ with either an anti-Lrg1 antibody or by peptide sequences derived from Lrg1. Peptides derived from the leucine-rich repeat regions of the Lrg1 sequence (L1-24 and L169-192 of Appendix 2 (SEQ ID NOS:3-4) or L94-117 and L262-285 of Appendix 3 (SEQ ID NOS:3-4)), which are believed to be involved in protein-protein interactions, and from the highly conserved leucine-rich C-terminal domain (L227-252 of Appendix 2 (SEQ ID NO:5) or L320-345 of Appendix 3 (SEQ ID NO:5)) were generated (Appendix 2). […] Treatment of control cells with 5 ng/ml TGFβ results in a significant increase in Smad5 phosphorylation.

Row | Sequence | effect on Smad5 phosphorylation | effect on Smad5 phosphorylation (listed as Lrg1 blocking peptide derived from the C-terminus)
1 | LQELHLSSNGLESLSPEFLRPVPQ (listed as Homo sapiens) [L1-24, Peptide from a leucine-rich repeat region of human Lrg1] | no effect | 
2 | LDMLDLSNNSLASVPEGLWASLGQ (listed as Homo sapiens) [L169-192, Peptide from a leucine-rich repeat region of human Lrg1] | partial effect | 
3 | KMFSQNDTRCAGPEAVKGQTLLAVAK (listed as Homo sapiens) [L227-252] | dramatic inhibitory effect | inhibits
